Measurements: PubChem BioAssay AID1845215 (Molecular Pharmacology Branch, DTP, NCI, 2023)

System: SW 1271 complex tumor spheroid viability
Experiment: Anticancer human tumor SW 1271 cell line growth inhibition;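 also: spheroids exposed to agents for seven days before readout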;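 as to viability, T/C: percent of DMSO vehicle control luminescence so 100% = vehicle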
Conditions: for IC50: curve of first compound; for viability, T/C: stronger effect = lower value; active = viability on the fitted dose curve at most 10% of control; inactive = the rest
Outline: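 Complex spheroids of malignant cells with endothelial cells and mesenchymal stem cells; agents alone or combined, from near clinical Cmax (or 10 microM if unknown) down in half-log steps, 0.25% DMSO final.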

[1] = second compound 1 µM, first compound 0.0316 µM
[2] = second compound 1 µM, first compound 0.1 µM
[3] = second compound 1 µM, first compound 0.316 µM
[4] = second compound 1 µM, first compound 1 µM
[5] = second compound 1 µM, first compound 3.16 µM
[6] = second compound 1 µM, first compound 10 µM
[7] = second compound 3.16 µM, first compound 0.0316 µM
[8] = second compound 3.16 µM, first compound 0.1 µM
[9] = second compound 3.16 µM, first compound 0.316 µM
[10] = second compound 3.16 µM, first compound 1 µM
[11] = second compound 3.16 µM, first compound 3.16 µM
[12] = second compound 3.16 µM, first compound 10 µM
[13] = second compound 10 µM, first compound 0.0316 µM
[14] = second compound 10 µM, first compound 0.1 µM
[15] = second compound 10 µM, first compound 0.316 µM
[16] = second compound 10 µM, first compound 1 µM
[17] = second compound 10 µM, first compound 3.16 µM
[18] = second compound 10 µM, first compound 10 µM
[19] = second compound 31.6 µM, first compound 0.0316 µM
[20] = second compound 31.6 µM, first compound 0.1 µM
[21] = second compound 31.6 µM, first compound 0.316 µM
[22] = second compound 31.6 µM, first compound 1 µM
[23] = second compound 31.6 µM, first compound 3.16 µM
[24] = second compound 31.6 µM, first compound 10 µM
[25] = second compound 100 µM, first compound 0.0316 µM
[26] = second compound 100 µM, first compound 0.1 µM
[27] = second compound 100 µM, first compound 0.316 µM
[28] = second compound 100 µM, first compound 1 µM
[29] = second compound 100 µM, first compound 3.16 µM
[30] = second compound 100 µM, first compound 10 µM

COc1cc(C)[nH]c(=O)c1CN1CCc2c(Cl)cc(C(OC)C3COC3)c(Cl)c2C1=O (stereo not given) + Cn1nnc2c(C(N)=O)ncn2c1=O
> 10 µM: IC50 (second compound 1 µM) | IC50 (second compound 3.16 µM) | IC50 (second compound 10 µM) | IC50 (second compound 31.6 µM) | IC50 (second compound 100 µM)
inactive: viability, T/C [1] 92.5% | viability, T/C [2] 90.5% | viability, T/C [3] 91.2% | viability, T/C [4] 86.1% | viability, T/C [5] 77.5% | viability, T/C [6] 76.7% | viability, T/C [7] 98.1% | viability, T/C [8] 90.2% | viability, T/C [9] 90.3% | viability, T/C [10] 94.4% | viability, T/C [11] 85% | viability, T/C [12] 82.3% | viability, T/C [13] 98.2% | viability, T/C [14] 93.5% | viability, T/C [15] 96.1% | viability, T/C [16] 83.8% | viability, T/C [17] 87.8% | viability, T/C [18] 81.4% | viability, T/C [19] 97.1% | viability, T/C [20] 89.8% | viability, T/C [21] 99.3% | viability, T/C [22] 100% | viability, T/C [23] 88.5% | viability, T/C [24] 80.2% | viability, T/C [25] 88.7% | viability, T/C [26] 96.3% | viability, T/C [27] 84.2% | viability, T/C [28] 80.7% | viability, T/C [29] 77.3% | viability, T/C [30] 76.1%

Cc1cc(C)c(CNC(=O)c2cc(-c3ccc(CN4CCOCC4)cc3)cc3c2cnn3C2CCCC2)c(=O)[nH]1 + Cn1nnc2c(C(N)=O)ncn2c1=O
inactive: viability, T/C [1] 98.6% | viability, T/C [2] 92.6% | viability, T/C [3] 93.5% | viability, T/C [4] 91.5% | viability, T/C [5] 88.7% | viability, T/C [6] 73.1% | viability, T/C [7] 93.7% | viability, T/C [8] 101% | viability, T/C [9] 95.3% | viability, T/C [10] 99.2% | viability, T/C [11] 83.9% | viability, T/C [12] 79.1% | viability, T/C [13] 97.7% | viability, T/C [14] 91.7% | viability, T/C [15] 98.8% | viability, T/C [16] 96.7% | viability, T/C [17] 81.5% | viability, T/C [18] 76.2% | viability, T/C [19] 106% | viability, T/C [20] 103% | viability, T/C [21] 102% | viability, T/C [22] 100% | viability, T/C [23] 74.5% | viability, T/C [24] 62% | viability, T/C [25] 91.8% | viability, T/C [26] 90.4% | viability, T/C [27] 79.8% | viability, T/C [28] 81.7% | viability, T/C [29] 70.7% | viability, T/C [30] 52.7%
> 10 µM: IC50 (second compound 1 µM) | IC50 (second compound 3.16 µM) | IC50 (second compound 10 µM) | IC50 (second compound 31.6 µM) | IC50 (second compound 100 µM)

Cc1sc2c(c1C)C(c1ccc(Cl)cc1)=NC(CC(=O)Nc1ccc(O)cc1)c1nnc(C)n1-2 (stereo not given) + Cn1nnc2c(C(N)=O)ncn2c1=O
0.0854 µM: IC50 (second compound 3.16 µM)
active: viability, T/C (second compound 1 µM, first compound 0.3 µM) 3.27% | viability, T/C (second compound 1 µM, first compound 0.949 µM) 1.29% | viability, T/C (second compound 1 µM, first compound 3 µM) 1.13% | viability, T/C (second compound 3.16 µM, first compound 0.3 µM) 2.74% | viability, T/C (second compound 3.16 µM, first compound 0.949 µM) 1.12% | viability, T/C (second compound 3.16 µM, first compound 3 µM) 1.25% | viability, T/C (second compound 10 µM, first compound 0.3 µM) 3.68% | viability, T/C (second compound 10 µM, first compound 0.949 µM) 1.21% | viability, T/C (second compound 10 µM, first compound 3 µM) 1.48% | viability, T/C (second compound 31.6 µM, first compound 0.3 µM) 3.27% | viability, T/C (second compound 31.6 µM, first compound 0.949 µM) 1.04% | viability, T/C (second compound 31.6 µM, first compound 3 µM) 0.93% | viability, T/C (second compound 100 µM, first compound 0.3 µM) 2.27% | viability, T/C (second compound 100 µM, first compound 0.949 µM) 1.7% | viability, T/C (second compound 100 µM, first compound 3 µM) 0.96%
0.0779 µM: IC50 (second compound 10 µM)
inactive: viability, T/C (second compound 1 µM, first compound 0.00949 µM) 118% | viability, T/C (second compound 1 µM, first compound 0.03 µM) 100% | viability, T/C (second compound 1 µM, first compound 0.0949 µM) 30.9% | viability, T/C (second compound 3.16 µM, first compound 0.00949 µM) 107% | viability, T/C (second compound 3.16 µM, first compound 0.03 µM) 110% | viability, T/C (second compound 3.16 µM, first compound 0.0949 µM) 44.2% | viability, T/C (second compound 10 µM, first compound 0.00949 µM) 116% | viability, T/C (second compound 10 µM, first compound 0.03 µM) 110% | viability, T/C (second compound 10 µM, first compound 0.0949 µM) 37.5% | viability, T/C (second compound 31.6 µM, first compound 0.00949 µM) 104% | viability, T/C (second compound 31.6 µM, first compound 0.03 µM) 96.5% | viability, T/C (second compound 31.6 µM, first compound 0.0949 µM) 33.5% | viability, T/C (second compound 100 µM, first compound 0.00949 µM) 96.8% | viability, T/C (second compound 100 µM, first compound 0.03 µM) 77.6% | viability, T/C (second compound 100 µM, first compound 0.0949 µM) 24%
0.0701 µM: IC50 (second compound 31.6 µM)
0.0542 µM: IC50 (second compound 100 µM)
0.069 µM: IC50 (second compound 1 µM)

[2H]c1nc(C)nc([2H])c1-c1cc(NC[C@@H](C)c2cccc3c(C(=O)NC)ccnc23)ncn1 + Cn1nnc2c(C(N)=O)ncn2c1=O
> 10 µM: IC50 (second compound 1 µM) | IC50 (second compound 3.16 µM) | IC50 (second compound 10 µM) | IC50 (second compound 31.6 µM) | IC50 (second compound 100 µM)
inactive: viability, T/C [1] 91.1% | viability, T/C [2] 101% | viability, T/C [3] 95.1% | viability, T/C [4] 96.7% | viability, T/C [5] 98.9% | viability, T/C [6] 78.5% | viability, T/C [7] 104% | viability, T/C [8] 103% | viability, T/C [9] 103% | viability, T/C [10] 98.9% | viability, T/C [11] 96.8% | viability, T/C [12] 84.8% | viability, T/C [13] 101% | viability, T/C [14] 103% | viability, T/C [15] 92.4% | viability, T/C [16] 88.3% | viability, T/C [17] 87.2% | viability, T/C [18] 81.1% | viability, T/C [19] 110% | viability, T/C [20] 99.3% | viability, T/C [21] 100% | viability, T/C [22] 98.7% | viability, T/C [23] 98.3% | viability, T/C [24] 80.3% | viability, T/C [25] 93.1% | viability, T/C [26] 90.2% | viability, T/C [27] 86% | viability, T/C [28] 77.8% | viability, T/C [29] 73.8% | viability, T/C [30] 64.7%
